# Source: article PMC8494060 (Science translational medicine, 2020)
# Target: T1, OGA (Rattus norvegicus, UniProt Q8VIJ5)
# T1 sequence (Q8VIJ5 1-916): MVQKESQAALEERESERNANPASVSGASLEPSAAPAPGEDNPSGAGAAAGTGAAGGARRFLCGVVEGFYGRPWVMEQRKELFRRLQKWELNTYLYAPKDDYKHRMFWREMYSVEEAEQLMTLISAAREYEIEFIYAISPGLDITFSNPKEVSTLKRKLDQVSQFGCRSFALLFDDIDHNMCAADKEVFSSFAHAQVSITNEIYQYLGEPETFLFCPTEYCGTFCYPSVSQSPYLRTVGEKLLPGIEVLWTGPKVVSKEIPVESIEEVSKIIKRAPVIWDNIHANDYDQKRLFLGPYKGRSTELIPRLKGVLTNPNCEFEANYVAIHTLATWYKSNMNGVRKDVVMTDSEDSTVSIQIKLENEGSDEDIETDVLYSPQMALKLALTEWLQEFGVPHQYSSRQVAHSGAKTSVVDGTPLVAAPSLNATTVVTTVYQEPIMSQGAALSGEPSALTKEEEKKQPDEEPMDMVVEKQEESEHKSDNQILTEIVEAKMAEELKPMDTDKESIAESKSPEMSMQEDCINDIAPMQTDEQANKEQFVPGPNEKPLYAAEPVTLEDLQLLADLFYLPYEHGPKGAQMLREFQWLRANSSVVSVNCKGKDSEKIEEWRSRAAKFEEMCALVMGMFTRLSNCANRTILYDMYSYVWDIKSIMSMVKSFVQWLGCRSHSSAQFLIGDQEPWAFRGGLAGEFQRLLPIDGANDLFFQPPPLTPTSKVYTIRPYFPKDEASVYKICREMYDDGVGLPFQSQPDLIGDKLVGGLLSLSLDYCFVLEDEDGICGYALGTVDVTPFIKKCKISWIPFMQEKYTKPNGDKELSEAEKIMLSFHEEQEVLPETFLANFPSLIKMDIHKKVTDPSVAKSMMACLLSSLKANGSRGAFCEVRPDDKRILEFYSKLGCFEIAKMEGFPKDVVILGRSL
# Experiment: Rat OGA occupancy of thiamet G
# Format: in vivo
# Conditions: 2 h before tracer
smiles,measurement,setting,value
CCN=C1N[C@@H]2[C@@H](O)[C@H](O)[C@@H](CO)O[C@@H]2S1 [thiamet G],LSN3316612 tracer uptake blocked,thiamet G 30 mg/kg p.o.,80%
same,LSN3316612 tracer uptake blocked,thiamet G 100 mg/kg p.o.,94%
